According to publication PMC7064328 (Environmental Health Perspectives, 2020):

Tests used:
[1] = Maternal indices: dam body weight, gestational weight gain, liver and kidney weight after daily oral gavage E1.5 to E11.5 or E17.5; type: in vivo, mouse (CD-1); conditions: female, CD-1, mouse, in vivo, oral; dam systemic toxicity: liver alterations, higher GWG, placental lesions; read-out: Lowest dose group evaluated, with significant adverse effects (no NOAEL reportable)
Procedure: Naïve female CD-1 mice between 7.5 and 15.5 wk of age from the NIEHS colony were bred in-house on a single night, and copulatory plug–positive females were identified on embryonic day (E) 0.5. Pregnant dams were singly housed in ventilated polypropylene cages and received nesting materials, National Institutes of Health (NIH)-31 diet (Zeigler Bros., Inc.) and reverse osmosis deionized (RODI) water ad libitum. Animals were housed in humidity- and temperature-controlled rooms with 25°C and 45–60% average humidity and standard 12-h light cycles. All animal procedures were approved by the NIEHS Animal Care and Use Committee (ASP #2017-0022).
PFOA and GenX dosing solutions were prepared in RODI water and administered to mice once daily via oral gavage. Daily doses were administered between 0700 and 0800 hours and adjusted to the BW of the mouse based on the previous day’s weight at a volume of 0.01mL/g BW. […] The dose of 1mg/kg BW/d PFOA, used in the mouse developmental toxicity study of [Lau et al. 2006], provided a lowest effect dose that was used to set the reference dose within the U.S. EPA’s drinking water lifetime health advisory level (HAL) of 70 ppt PFOA ([U.S. EPA 2016]).
This experiment was conducted over two blocks (Block 1 and Block 2) to achieve a total of n=11–13 litters per treatment group and sacrifice time point (E11.5 and E17.5). The experimental design of the second block was identical to the first block of the study, and experimental methods were similar but expanded upon to include more rigorous and detailed measurements. Copulatory plug–positive mice (E0.5) were weighed to obtain a baseline BW and placed into one of five groups. Once all mice were assigned to groups, mean BWs were calculated, and a few animals were reassigned so that mean BWs in each group were similar. This was done to avoid confounding effects of baseline BW. Treatment groups were then randomly assigned a color by using a random sequence generator. Experimenters and dosing technicians were blinded to the treatment group to which the color groups corresponded throughout the duration of the study, including at necropsy. […] Pregnant dams were dosed via oral gavage from E1.5 to E11.5 or from E1.5 to E17.5. […] The E11.5 early-gestation time point was selected because it overlaps a critical period of placental development in the mouse where the placenta undergoes vascularization with the uterine wall and chorioallantoic branching of vessels begins ([Watson and Cross 2005]). The E17.5 late-gestation time point was selected so that embryo weight changes that may be related to treatment would be evident.
On the day of necropsy, dams received daily oral gavage between 0700 and 0800 hours and were weighed and then euthanized humanely by swift decapitation, and serum was collected. In Block 1, necropsies were completed from 0800 to 1600 hours, and in Block 2, necropsies were completed from 0800 to 1200 hours. Serum from dams euthanized in Block 1 was snap frozen for internal dosimetry analyses. Serum and urine from Block 2 dams were reserved for clinical chemistry analyses. In both blocks, the uterus was removed, and total implantation sites were counted based on gross observation of an implantation nodule along the uterine horn. Viable embryos, nonviable embryos, and sites of resorption were counted based on gross observation. Embryos were considered viable if they were properly formed, were not pale in color, and were of similar size to neighboring embryos. Embryos that were poorly formed and pale in color (without heartbeat) were considered nonviable. Sites of resorption were defined as a dark red–appearing clot-like nodule apparent on gross observation.
From each uterus, first, viable embryos and their matched placentas were collected in succession within a horn and immediately snap frozen ( n=2–5 per litter ), and subsequent embryos were collected for growth measurements ( n=2–11 per litter ). […]

CD-1 mice = conditions: cited from earlier work
[2] = parameters: method as in Gannon et al. 2016; conditions: mice; ref Gannon et al. 2016; cited from earlier work
[3] = parameters: method as in Olsen et al. 2007; conditions: ref Olsen et al. 2007; cited from earlier work
humans = test system: humans; parameters: method as in Johnson et al. 2014; conditions: meta-analysis; ref Johnson et al. 2014; cited from earlier work

Row | SMILES | LOAEL [1] [mg/kg/day] | Dam plasma concentration (CD-1 mice; 5 mg/kg/d on lactation day 21, ref DuPont-18,405-1,037) [µg/mL] | NOAEL for reproductive toxicity and maternal systemic toxicity (CD-1 mice; microscopic changes in maternal liver, ref DuPont-18,405-1,037 (Edwards 2010b)) [mg/kg/day] | Elimination half-life [2] [h] | Human half-life [3] [y] | Shift in birth weight per 1-ng/mL increase in serum PFOA (humans) [g]
1 | N.O=C(O)C(F)(OC(F)(F)C(F)(F)C(F)(F)F)C(F)(F)F (stereo not drawn) [GenX, ammonium 2,3,3,3-tetrafluoro-2-(heptafluoropropoxy)propanoate] | 2 | 36.4 | 5 | ~20 | – | –
2 | O=C(O)C(F)(F)C(F)(F)C(F)(F)C(F)(F)C(F)(F)C(F)(F)C(F)(F)F [PFOA, Perfluorooctanoic acid] | – | – | – | – | ~3.5 | -18.9
